Source: US20240252490A1, “Combination Therapies Comprising Kras Inhibitors and SPH2 Inhibitors” (HUYABIO International, LLC, priority 2022, published 2024)
Several values for one entry are separate records, joined by “and”; a condition that tells them apart may be missing. Equal values may be shown once. Read-outs that look alike come from different tables or passages of the source.

Experiments:
[1] = tested on: NCI-H1373-luc ICA tumor model; experiment: in vivo anti-tumor efficacy, intra-carotid artery metastatic brain tumor model (bioluminescence); set-up: species or system Nu/Nu mice; conditions: for T/C / TGI: day 21, from log 10 Bioluminescence
Excerpt: The objective of this Example is to evaluate the in vivo anti-tumor efficacy of AMG510 (positive control KRAS G12C inhibitor), MRTX 849 (positive control KRAS G12C inhibitor) and HBI-2438 (a KRAS G12C inhibitor of the invention) in NCH-H1373-luc ICA, an intra-carotid artery metastatic brain tumor model, in Nu/Nu mice. HBI-2438 (the compound of Formula Ia) was supplied by Huyabio International, LLC. This intra-carotid artery model is well recognized in the art for evaluating the ability of a target compound to treat metastatic brain tumor.
All the procedures related to animal handling, care and the treatment in the study were performed according to the guidelines approved by the Institutional Animal Care and Use Committee (IACUC) of WuXi AppTec, following the guidance of the Association for Assessment and Accreditation of Laboratory Animal Care (AAALAC). At the time of routine monitoring, the animals were checked daily for tumor growth and any effects of treatments on normal behavior such as mobility, food and water consumption (by looking only), body weight gain/loss (body weights were measured twice per week), eye/hair matting and any other abnormal effect as stated in the protocol. Death and observed clinical signs were recorded on the basis of the numbers of animals within each subset.
Methods: The NCI-H1373-luc tumor cells were maintained in medium supplemented with 10% heat inactivated fetal bovine serum at 37° C. in an atmosphere of 5% CO2 in air. The tumor cells were routinely subcultured twice weekly. The cells growing in an exponential growth phase were harvested and counted for tumor inoculation. Each mouse was inoculated with NCI-H1373-luc tumor cells (0.5×10^5) in 100 μL of PBS. The animals were randomized and treatments were started when the Bioluminescence signal reached 8*10^6. After grouping, the bioluminescence measurements were taken once per week with IVIS (Lumina II).
Each mouse was inoculated with NCI-H1373-luc tumor cells (0.5×10^5) in 100 μL of PBS. The animals were randomized and treatments were started when the Bioluminescence signal reached 8*10^6. After grouping, the bioluminescence measurements were taken once per week with IVIS (Lumina II).
Tumor growth inhibition rate for test articles in the NCI-H1373-luc model was calculated based on log 10 Bioluminescence measurement at day 21 after the start of treatment, as shown in Table 3.

[2] = tested on: colorectal cancer xenograft model CR2528; experiment: in vivo therapeutic efficacy, subcutaneous HuPrime colorectal cancer xenograft model (tumor volume); set-up: species or system female BALB/c Nude mice; conditions: Day 20
Method: The above test articles were administered as single agent or in specific combination settings as described in Table 4. […] HBI-2438 and HBI-2376 (the compound of Formula Ia and the compound of Formula IIa, respectively) were supplied by Huyabio International, LLC.
(c) Tumor Inoculation: Tumor fragments from stock mice were harvested and used for inoculation into mice. Each mouse was inoculated subcutaneously in the right flank with CR2528 model tumor fragment (2-3 mm in diameter) for tumor development on May 25, 2022.
(d) Randomization: The randomization started when the mean tumor size reached 160 mm^3. 99 mice were enrolled in the study. All animals were randomly allocated to 11 study groups, 9 mice in each group. Randomization was performed based on “Matched distribution” method/“Stratified” method (StudyDirector™ software, version 3.1.399.19)/randomized block design. The date of randomization was denoted as day 0 (Jun. 13, 2022).
(§1) Tumor volumes were measured twice per week after randomization in two dimensions using a caliper, and the volume was expressed in mm^3 using the formula: “V=(L×W×W)/2, where V is tumor volume, L is tumor length (the longest tumor dimension) and W is tumor width (the longest tumor dimension perpendicular to L). Dosing as well as tumor and body weight measurements were conducted in a Laminar Flow Cabinet. The body weights and tumor volumes were measured by using StudyDirector™ software (version 3.1.399.19).
The treatments on both primary and secondary studies were performed for 3 weeks. The primary study was terminated on Day 21 with plasma and tumor samples collection. For secondary analysis tumor samples were collected after the final dose and were transferred in a sterile tube, to be frozen into liquid nitrogen. All the frozen tumor samples were stored in −80° C.

[3] = type: in vivo; conditions: for BW change: Day 20 vs Day 0
Method: Observation and Data Collection: After tumor cells inoculation, the animals were checked daily for morbidity and mortality. During routine monitoring, the animals were checked for any effects of tumor growth and treatments on behavior such as mobility, food and water consumption, body weight gain/loss (body weights were measured twice per week after randomization), eye/hair matting and any other abnormalities. Mortality and observed clinical signs were recorded for individual animals in detail.
as §1

[4] = 30 mg/kg PO QD, day 0 after start of treatment

## C=CC(=O)N1CCN(c2nc(=O)n(-c3c(C)ccnc3C(C)C)c3nc(-c4c(O)cccc4F)c(F)cc23)[C@@H](C)C1 [AMG-510, reference compound]
[1]; [4]
  log 10 Bioluminescence (mean ± SEM): 6.86 ± 0.09
[1]; 30 mg/kg PO QD, day 7
  log 10 Bioluminescence (mean ± SEM): 6.12 ± 0.06
[1]; 30 mg/kg PO QD, day 14
  log 10 Bioluminescence (mean ± SEM): 6.32 ± 0.25
[1]; 30 mg/kg PO QD, day 21
  log 10 Bioluminescence (mean ± SEM): 6.69 and 6.69 ± 0.3
[1]; 30 mg/kg PO QD
  T/C: 79.3%
  TGI: 111.5%

## C[C@@H]1OCC2(CCN(c3cnc(Sc4cccc(NC(=O)c5c(O)nc6n(c5=O)CCCC6)c4Cl)cn3)CC2)[C@@H]1N [HBI-2376, N-(3-((5-((3S,4S)-4-amino-3-methyl-2-oxa-8-azaspiro[4.5]decan-8-yl)pyrazin-2-yl)thio)-2-chlorophenyl)-2-hydroxy-4-oxo-6,7,8,9-tetrahydro-4H-pyrido[1,2-a]pyrimidine-3-carboxamide]
[2]; 5 mg/kg QD
  T/C: 27.18%
  TGI: 72.82%
  Tumor Volume (mean ± SEM): 469.69 ± 81.71 mm^3
[3]; 5 mg/kg QD
  Day 0 BW (mean ± SEM): 22.79 ± 0.69
  Day 20 BW (mean ± SEM): 22.03 ± 1.05
  BW change: −3.36%
[3]; 5 mg/kg QD, on Day 20
  Maximum mean BWL: −3.36% on

## C=CC(=O)N1C[C@@H]2C(=O)N(CCN(C)C)c3c(c4cc(Cl)c(-c5c(O)cccc5F)nc4n(-c4c(C)ccnc4C(C)C)c3=O)N2C[C@H]1C [HBI-2438]
[1]; 15 mg/kg PO QD, day 0 after start of treatment
  log 10 Bioluminescence (mean ± SEM): 6.86 ± 0.11
[1]; 15 mg/kg PO QD, day 7
  log 10 Bioluminescence (mean ± SEM): 6.49 ± 0.14
[1]; 15 mg/kg PO QD, day 14
  log 10 Bioluminescence (mean ± SEM): 6.44 ± 0.2
[1]; 15 mg/kg PO QD, day 21
  log 10 Bioluminescence (mean ± SEM): 6.58 and 6.58 ± 0.21
[1]; 15 mg/kg PO QD
  T/C: 78.1%
  TGI: 118.2%
[1]; [4]
  log 10 Bioluminescence (mean ± SEM): 6.86 ± 0.1
[1]; 30 mg/kg PO QD, day 7
  log 10 Bioluminescence (mean ± SEM): 6.09 ± 0.07
[1]; 30 mg/kg PO QD, day 14
  log 10 Bioluminescence (mean ± SEM): 5.86 ± 0.12
[1]; 30 mg/kg PO QD, day 21
  log 10 Bioluminescence (mean ± SEM): 6.00 and 6.00 ± 0.13
[1]; 30 mg/kg PO QD
  T/C: 71.2%
  TGI: 155.8%
[1]; 100 mg/kg PO QD, day 0 after start of treatment
  log 10 Bioluminescence (mean ± SEM): 6.86 ± 0.11
[1]; 100 mg/kg PO QD, day 7
  log 10 Bioluminescence (mean ± SEM): 5.92 ± 0.09
[1]; 100 mg/kg PO QD, day 14
  log 10 Bioluminescence (mean ± SEM): 6.04 ± 0.2
[1]; 100 mg/kg PO QD, day 21
  log 10 Bioluminescence (mean ± SEM): 6.09 and 6.09 ± 0.24
[1]; 100 mg/kg PO QD
  T/C: 72.2%
  TGI: 150.0%
[2]; 10 mg/kg QD
  T/C: 84.37%
  TGI: 15.63%
  Tumor Volume (mean ± SEM): 1458.01 ± 164.19 mm^3
[2]; 30 mg/kg QD
  T/C: 52.41%
  TGI: 47.59%
  Tumor Volume (mean ± SEM): 905.6 ± 108.46 mm^3
[2]; 100 mg/kg QD
  T/C: 43.69%
  TGI: 56.31%
  Tumor Volume (mean ± SEM): 754.97 ± 98 mm^3
[3]; 10 mg/kg QD
  Day 0 BW (mean ± SEM): 22.32 ± 0.57
  Day 20 BW (mean ± SEM): 22.19 ± 0.81
  BW change: −0.62%
[3]; 10 mg/kg QD, on Day 20
  Maximum mean BWL: −0.62% on
[3]; 30 mg/kg QD
  Maximum mean BWL: No BWL
  Day 0 BW (mean ± SEM): 22.54 ± 0.61
  Day 20 BW (mean ± SEM): 23.89 ± 0.58
  BW change: 6.12%
[3]; 100 mg/kg QD
  Maximum mean BWL: No BWL
  Day 0 BW (mean ± SEM): 21.91 ± 0.57
  Day 20 BW (mean ± SEM): 22.31 ± 0.71
  BW change: 1.86%

## C=C(F)C(=O)N1CCN(c2nc(OC[C@@H]3CCCN3C)nc3c2CCN(c2cccc4cccc(Cl)c24)C3)C[C@@H]1CC#N [MRTX849, reference compound]
[1]; [4]
  log 10 Bioluminescence (mean ± SEM): 6.83 ± 0.14
[1]; 30 mg/kg PO QD, day 7
  log 10 Bioluminescence (mean ± SEM): 6.38 ± 0.21
[1]; 30 mg/kg PO QD, day 14
  log 10 Bioluminescence (mean ± SEM): 6.24 ± 0.18
[1]; 30 mg/kg PO QD, day 21
  log 10 Bioluminescence (mean ± SEM): 6.01 and 6.01 ± 0.14
[1]; 30 mg/kg PO QD
  T/C: 71.3%
  TGI: 152.6%
[2]; 100 mg/kg QD
  T/C: 41.56%
  TGI: 58.44%
  Tumor Volume (mean ± SEM): 718.22 ± 151.89 mm^3

## C[C@@H]1OCC2(CCN(c3cnc(Sc4ccnc(N)c4Cl)c(N)n3)CC2)[C@@H]1N [TNO-155, reference compound]
[2]; 5 mg/kg QD
  T/C: 53.02%
  TGI: 46.98%
  Tumor Volume (mean ± SEM): 916.21 ± 100.32 mm^3
